Measurements: ChEMBL document CHEMBL2321750, “Structural permutation of potent cytotoxin, polytheonamide B: discovery of cytotoxic Peptide with altered activity” (ACS Med Chem Lett, 2013)
pIC50: −log10 of the molar value.

Test system: P388
Assay: Cytotoxicity against mouse P388 cells assessed as cell viability after 92 hrs by XTT assay
Format: functional, cell-based
Settings: P388, 92 h

## CC[C@H](C)[C@H](NC(=O)[C@@H](CC(=O)NC)NC(=O)CNC(=O)[C@H](NC(=O)[C@@H](NC(=O)[C@@H](CC(=O)NC)NC(=O)[C@@H](NC(=O)[C@@H](CC(=O)NC)NC(=O)CNC(=O)CNC(=O)[C@H](C)NC(=O)[C@H](NC(=O)[C@H](CCC(=O)NC)NC(=O)[C@@H](CC(=O)NC)NC(=O)[C@@H](NC(=O)CNC(=O)[C@H](C)NC(=O)CNC(=O)[C@@H](N)C(C)(C)O)C(C)(C)C)C(C)(C)O)[C@@H](C)CC)C(C)(C)C)C(C)(C)O)C(=O)N[C@H](CC(=O)NC)C(=O)N[C@H](C(=O)N[C@H](CC(=O)NC)C(=O)N[C@@H](C)C(=O)N[C@H](CC(=O)NC)C(=O)N[C@H](C(=O)N[C@H](CO)C(=O)N[C@H](C(=O)N[C@H](CC(N)=O)C(=O)N[C@@H](Cc1cn(CCNS(=O)(=O)c2cccc3c(N(C)C)cccc23)nn1)C(=O)N[C@H](CC(N)=O)C(=O)N[C@@H](CCC(N)=O)C(=O)N[C@@H](C(=O)N[C@H](C(=O)O)[C@@H](C)O)[C@H](C)O)C(C)C)C(C)C)C(C)C
  pIC50: 6.85

## CC[C@H](C)[C@H](NC(=O)[C@@H](CC(=O)NC)NC(=O)CNC(=O)[C@H](NC(=O)[C@@H](NC(=O)[C@@H](CC(=O)NC)NC(=O)[C@@H](NC(=O)[C@@H](CC(=O)NC)NC(=O)CNC(=O)CNC(=O)[C@H](C)NC(=O)[C@H](NC(=O)[C@H](CCC(=O)NC)NC(=O)[C@@H](CC(=O)NC)NC(=O)[C@@H](N)C(C)(C)C)C(C)(C)O)[C@@H](C)CC)C(C)(C)C)C(C)(C)O)C(=O)N[C@H](CC(=O)NC)C(=O)N[C@H](C(=O)N[C@H](CC(=O)NC)C(=O)N[C@@H](C)C(=O)N[C@H](CC(=O)NC)C(=O)N[C@H](C(=O)N[C@H](CO)C(=O)N[C@H](C(=O)N[C@H](CC(N)=O)C(=O)N[C@@H](Cc1cn(CCNS(=O)(=O)c2cccc3c(N(C)C)cccc23)nn1)C(=O)N[C@H](CC(N)=O)C(=O)N[C@@H](CCC(N)=O)C(=O)N[C@@H](C(=O)N[C@H](C(=O)O)[C@@H](C)O)[C@H](C)O)C(C)C)C(C)C)C(C)C
  pIC50: 6.41

## CC[C@H](C)[C@H](NC(=O)[C@@H](CC(=O)NC)NC(=O)CNC(=O)[C@H](NC(=O)[C@@H](NC(=O)[C@@H](CC(=O)NC)NC(=O)[C@@H](NC(=O)[C@@H](CC(=O)NC)NC(=O)CNC(=O)CNC(=O)[C@H](C)NC(=O)[C@H](NC(=O)[C@H](CCC(=O)NC)NC(=O)[C@@H](CC(=O)NC)NC(=O)[C@@H](NC(=O)CNC(=O)[C@H](C)NC(=O)CNC(=O)[C@@H](NC(=O)[C@@H](CC(=O)NC)NC(=O)[C@H](C)NC(=O)[C@H](N)C(C)(C)C)C(C)(C)O)C(C)(C)C)C(C)(C)O)[C@@H](C)CC)C(C)(C)C)C(C)(C)O)C(=O)N[C@H](CC(=O)NC)C(=O)N[C@H](C(=O)N[C@H](CC(=O)NC)C(=O)N[C@@H](C)C(=O)N[C@H](CC(=O)NC)C(=O)N[C@H](C(=O)N[C@H](CO)C(=O)N[C@H](C(=O)N[C@H](CC(N)=O)C(=O)N[C@@H](Cc1cn(CCNS(=O)(=O)c2cccc3c(N(C)C)cccc23)nn1)C(=O)N[C@H](CC(N)=O)C(=O)N[C@@H](CCC(N)=O)C(=O)N[C@@H](C(=O)N[C@H](C(=O)O)[C@@H](C)O)[C@H](C)O)C(C)C)C(C)C)C(C)C
  pIC50: 7.09

## CC[C@H](C)[C@H](NC(=O)[C@@H](CC(=O)NC)NC(=O)CNC(=O)[C@H](NC(=O)[C@@H](NC(=O)[C@@H](CC(=O)NC)NC(=O)[C@@H](NC(=O)[C@@H](CC(=O)NC)NC(=O)CNC(=O)CNC(=O)[C@H](C)NC(=O)[C@H](NC(=O)[C@@H](N)CCC(=O)NC)C(C)(C)O)[C@@H](C)CC)C(C)(C)C)C(C)(C)O)C(=O)N[C@H](CC(=O)NC)C(=O)N[C@H](C(=O)N[C@H](CC(=O)NC)C(=O)N[C@@H](C)C(=O)N[C@H](CC(=O)NC)C(=O)N[C@H](C(=O)N[C@H](CO)C(=O)N[C@H](C(=O)N[C@H](CC(N)=O)C(=O)N[C@@H](Cc1cn(CCNS(=O)(=O)c2cccc3c(N(C)C)cccc23)nn1)C(=O)N[C@H](CC(N)=O)C(=O)N[C@@H](CCC(N)=O)C(=O)N[C@@H](C(=O)N[C@H](C(=O)O)[C@@H](C)O)[C@H](C)O)C(C)C)C(C)C)C(C)C
  pIC50: < 6.38
